Measurements published in ChEMBL document CHEMBL4431312, “Development of an Orally Available and Central Nervous System (CNS) Penetrant Toxoplasma gondii Calcium-Dependent Protein Kinase 1 (TgCDPK1) Inhibitor with Minimal Human Ether-a-go-go-Related Gene (hERG) Activity for the Treatment of Toxoplasmosis” (J Med Chem, 2016).
≈ marks a conversion by molar mass, not a printed value.

Columns and labels:
[1] = target: Proto-oncogene tyrosine-protein kinase Src (Gallus gallus, UniProt P00523)
[2] = target: T1, Calmodulin-domain protein kinase 1 (Toxoplasma gondii, UniProt Q9BJF5)
T1 sequence (Q9BJF5 whole entry): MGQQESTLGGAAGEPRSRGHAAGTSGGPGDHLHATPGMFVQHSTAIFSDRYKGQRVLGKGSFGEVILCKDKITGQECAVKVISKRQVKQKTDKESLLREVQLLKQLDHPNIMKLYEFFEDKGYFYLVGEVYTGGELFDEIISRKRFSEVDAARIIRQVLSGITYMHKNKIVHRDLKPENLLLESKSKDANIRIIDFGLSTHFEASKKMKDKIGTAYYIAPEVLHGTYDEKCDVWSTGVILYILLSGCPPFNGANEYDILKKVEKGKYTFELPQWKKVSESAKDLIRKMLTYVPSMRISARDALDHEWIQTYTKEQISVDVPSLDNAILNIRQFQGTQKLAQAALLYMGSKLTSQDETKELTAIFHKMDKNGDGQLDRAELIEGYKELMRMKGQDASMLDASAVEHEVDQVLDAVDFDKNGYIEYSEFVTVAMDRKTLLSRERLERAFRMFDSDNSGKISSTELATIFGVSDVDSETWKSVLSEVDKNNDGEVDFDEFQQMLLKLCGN

in vitro [3] = conditions: human, CRL8155 cells
[4] = target: Voltage-gated inwardly rectifying potassium channel KCNH2 (Homo sapiens, UniProt Q12809)
Voltage-gated inwardly rectifying potassium channel KCNH2, sequence (Q12809 whole entry): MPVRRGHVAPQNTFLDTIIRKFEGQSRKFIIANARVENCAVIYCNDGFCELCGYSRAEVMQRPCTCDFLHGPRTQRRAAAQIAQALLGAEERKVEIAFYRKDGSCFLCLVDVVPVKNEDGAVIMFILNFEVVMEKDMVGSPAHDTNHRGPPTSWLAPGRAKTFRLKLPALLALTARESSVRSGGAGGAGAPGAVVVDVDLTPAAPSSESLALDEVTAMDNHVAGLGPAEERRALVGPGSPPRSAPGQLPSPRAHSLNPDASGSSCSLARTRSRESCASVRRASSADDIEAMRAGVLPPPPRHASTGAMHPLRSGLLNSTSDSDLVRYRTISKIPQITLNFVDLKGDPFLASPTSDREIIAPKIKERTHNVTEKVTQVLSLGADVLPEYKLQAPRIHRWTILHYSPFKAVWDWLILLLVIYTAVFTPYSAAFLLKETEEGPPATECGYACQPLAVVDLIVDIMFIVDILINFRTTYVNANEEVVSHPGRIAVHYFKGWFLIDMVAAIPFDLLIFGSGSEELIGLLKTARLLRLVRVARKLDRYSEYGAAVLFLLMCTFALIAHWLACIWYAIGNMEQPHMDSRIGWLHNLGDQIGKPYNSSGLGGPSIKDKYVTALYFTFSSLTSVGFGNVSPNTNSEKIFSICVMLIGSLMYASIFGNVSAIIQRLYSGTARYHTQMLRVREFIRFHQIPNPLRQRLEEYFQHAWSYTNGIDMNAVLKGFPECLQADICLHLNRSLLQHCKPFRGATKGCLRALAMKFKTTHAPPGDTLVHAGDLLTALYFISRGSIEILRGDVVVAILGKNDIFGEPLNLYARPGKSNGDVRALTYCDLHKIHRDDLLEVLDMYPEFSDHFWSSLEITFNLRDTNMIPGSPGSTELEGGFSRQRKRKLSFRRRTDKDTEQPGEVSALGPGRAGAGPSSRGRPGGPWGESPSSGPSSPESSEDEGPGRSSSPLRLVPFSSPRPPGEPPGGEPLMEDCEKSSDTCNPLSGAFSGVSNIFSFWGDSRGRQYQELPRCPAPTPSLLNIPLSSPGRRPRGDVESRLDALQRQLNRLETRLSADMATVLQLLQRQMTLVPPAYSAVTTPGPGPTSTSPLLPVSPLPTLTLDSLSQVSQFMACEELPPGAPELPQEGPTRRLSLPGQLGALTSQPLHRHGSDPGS

in vitro [5] = conditions: human, HepG2 cells
in vivo [6] = conditions: BALB/c, mouse, plasma, po, 10 mg/kg
[7] = mouse, in vivo, po, 10 mg/kg
Toxoplasma gondii = assay: microbe, parasite or virus in culture; conditions: 44 h
[8] = mouse, in vivo, po, 10 mg/kg; remark: listed apart in the source
in vivo [9] = conditions: BALB/c, mouse, plasma, po, 10 mg/kg; remark: listed apart in the source
[10] = buffer, pH 6.5
in vivo [11] = conditions: BALB/c, mouse, plasma, po, 10 mg/kg; remark: listed apart in the source
in vivo [12] = conditions: BALB/c, mouse, plasma, po, 10 mg/kg; remark: listed apart in the source
in vivo [13] = conditions: BALB/c, mouse, plasma, po, 10 mg/kg; remark: listed apart in the source

Structure (SMILES)	IC50 [1]	IC50 [2]	GI50 at 48 h (in vitro [3])	IC50 [4]	GI50 at 48 h (in vitro [5])	CL/F (in vivo [6])	Tmax [7]	EC50 (Toxoplasma gondii)	Cmax [8]	AUC(0-inf) (in vivo [9])	solubility [10]	Cmax (in vivo [11])	half-life (in vivo [12])	Tmax (in vivo [13])
CCOc1ccc2cc(-c3nn(CC4CCN(C(C)C)CC4)c4ncnc(N)c34)ccc2c1	> 10 µM	0.01 µM	> 10 µM	0.3 µM	> 10 µM									
CCOc1ccc2cc(-c3nn(CC4CN(C(C)=O)C4)c4ncnc(N)c34)ccc2c1	1.1 µM	0.004 µM	> 10 µM	> 10 µM	> 10 µM									
CCOc1ccc2cc(-c3nn(CC(C)(C)O)c4ncnc(N)c34)ccc2n1	> 10 µM		> 10 µM	> 10 µM	> 10 µM	0.2 mL/min								
COCCOc1ccc2cc(-c3nn(CC4CCN(C)CC4)c4ncnc(N)c34)ccc2c1	> 10 µM		> 10 µM		> 10 µM									
CN1CCC(Cn2nc(-c3ccc4cc(OC5CCC5)ccc4c3)c3c(N)ncnc32)CC1	> 10 µM		> 10 µM	0.2 µM	> 10 µM									
CN1CCC(Cn2nc(-c3ccc4cc(OC5CC5)ccc4c3)c3c(N)ncnc32)CC1	> 10 µM	0.0015 µM	> 10 µM	0.37 µM										
Nc1ncnc2c1c(-c1ccc3nc(OC4CC4)ccc3c1)nn2CC1CCOCC1	> 10 µM		> 10 µM	> 10 µM	> 10 µM	110 mL/min	0.5 h	0.081 µM	880 nM	1.12 µM·h				
CC(C)(CO)Cn1nc(-c2ccc3nc(OCC(F)(F)F)ccc3c2)c2c(N)ncnc21	> 10 µM	0.017 µM	> 10 µM		> 10 µM									
CN(C)CC(C)(C)Cn1nc(-c2ccc3nc(OC4CC4)ccc3c2)c2c(N)ncnc21	> 10 µM		> 10 µM	0.082 µM	> 10 µM									
CCOc1ccc2cc(-c3nn(CC4CCN(C(C)=O)CC4)c4ncnc(N)c34)ccc2c1	> 10 µM		> 10 µM	> 10 µM	> 10 µM	2.5 mL/min				1.57 µM·h	48 µM (≈ 21.3 µg/mL)	890 nM		
CC1(Cn2nc(-c3ccc4nc(OC5CC5)ccc4c3)c3c(N)ncnc32)COC1	> 10 µM		> 10 µM	> 10 µM	> 10 µM									
CC(C)Cn1nc(-c2ccc3nc(OC4CC4)ccc3c2)c2c(N)ncnc21	> 10 µM		> 10 µM	> 10 µM	> 10 µM									
CCOc1ccc2cc(-c3nn(CC(C)(C)O)c4ncnc(N)c34)ccc2c1	> 10 µM		> 10 µM		> 10 µM									
CC(C)(CO)Cn1nc(-c2ccc3nc(OC4CC4)ccc3c2)c2c(N)ncnc21	7.4 µM		> 10 µM	> 10 µM	> 10 µM	21 mL/min				0.065 µM·h	8 µM (≈ 3.24 µg/mL)	3900 nM	0.683 h	
Nc1ncnc2c1c(-c1ccc3cc(OC4CC4)ccc3c1)nn2CC1CCOCC1	0.37 µM	0.0024 µM	> 10 µM	> 10 µM	> 10 µM									
CCOc1ccc2cc(-c3nn(CC4CCN(C)CC4)c4ncnc(N)c34)ccc2c1	> 10 µM		> 10 µM	0.4 µM	> 10 µM	0.7 mL/min			750 nM					2 h
CN1CCC(Cn2nc(-c3ccc4nc(OC5CC5)ccc4c3)c3c(N)ncnc32)CC1	> 10 µM			1.7 µM	> 10 µM									
CCOc1ccc2cc(-c3nn(CC4CCN(C)CC4)c4ncnc(N)c34)ccc2n1	> 10 µM	0.0061 µM	> 10 µM	10 µM	> 10 µM	1.8 mL/min						260 nM	3.72 h	3.33 h
CCOc1ccc2cc(-c3nn(CC(C)C)c4ncnc(N)c34)ccc2c1	> 10 µM		> 10 µM	> 10 µM	> 10 µM									
CCOc1ccc2cc(-c3nn(CC4CNC4)c4ncnc(N)c34)ccc2c1	> 10 µM	0.0032 µM	> 10 µM	1.7 µM	> 10 µM									
CN1CCC(Cn2nc(-c3ccc4nc(OCC(F)(F)F)ccc4c3)c3c(N)ncnc32)CC1				0.5 µM										
CCOc1ccc2cc(-c3nn(CC4CCOCC4)c4ncnc(N)c34)ccc2c1	> 10 µM	0.002 µM	> 10 µM	> 10 µM	> 10 µM									
CCOc1ccc2cc(-c3nn(CC4CN(C)C4)c4ncnc(N)c34)ccc2c1	> 10 µM	0.006 µM	> 10 µM	1.4 µM	> 10 µM									
CC(C)Cn1nc(-c2ccc3cc(OC4CC4)ccc3c2)c2c(N)ncnc21	3.7 µM	0.0011 µM	> 10 µM	> 10 µM										
CC(C)(CO)Cn1nc(-c2ccc3cc(OC4CC4)ccc3c2)c2c(N)ncnc21	3.1 µM		> 10 µM	> 10 µM	> 10 µM	6.7 mL/min		0.056 µM	390 nM	0.517 µM·h				
CN1CCC(Cn2nc(-c3ccc4cc(OCC5CC5)ccc4c3)c3c(N)ncnc32)CC1	> 10 µM		> 10 µM	0.9 µM	> 10 µM									
Nc1ncnc2c1c(-c1ccc3cc(OC4CC4)ccc3c1)nn2CC(O)(C(F)(F)F)C(F)(F)F	> 10 µM		> 10 µM		> 10 µM									
CC1(Cn2nc(-c3ccc4cc(OC5CC5)ccc4c3)c3c(N)ncnc32)COC1	> 10 µM	0.0021 µM	> 10 µM	1.9 µM	> 10 µM									
CN1CCC(Cn2nc(-c3ccc4cc(OC5COC5)ccc4c3)c3c(N)ncnc32)CC1	> 10 µM	0.01 µM	> 10 µM		> 10 µM									
CCOc1ccc2cc(-c3nn(CC4CCOCC4)c4ncnc(N)c34)ccc2n1	> 10 µM		> 10 µM	> 10 µM	> 10 µM									
